According to US20230146507A1, “N-PHENYL-3-MERCAPTOPROPANAMIDE DERIVATIVES AS METALLO-BETA-LACTAMASE INHIBITORS FOR THE TREATMENT OF BACTERIAL INFECTIONS” (Helmholtz-Zentrum Für Infektionsforschung GmbH, priority 2020, published 2023):
≈ marks a conversion by molar mass, not a printed value.

Assays:
NDM-1 = target: T1, NDM-1 (Klebsiella pneumoniae, UniProt C7C422); assay: In vitro inhibition assay (kinetic fluorescence-based activity assay), NDM-1; assay type: biochemical; conditions: Means and SD of at least two independent experiments
T1 construct: made in house
Protocol: (§1) Protein expression and purification. The expression of IMP-7, VIM-1, and NDM-1 was performed according to the protocol previously published by Klingler et al. (Klingler, F. M.; Wichelhaus, T. A.; Frank, D.; Cuesta-Bernal, J.; El-Delik, J.; Müller, H. F.; Sjuts, H.; Gottig, S.; Koenigs, A.; Pos, K. M.; et al. Approved Drugs Containing Thiols as Inhibitors of Metallo-β-Lactamases: Strategy to Combat Multidrug-Resistant Bacteria. J. Med. Chem. 2015, 58 (8), 3626-3630. https://doi.org/10.1021/jm501844d) with slight modifications.
(§2) In vitro inhibition assay. Activity assays for NDM-1, VIM-1, VIM-2 and IMP-7 were carried out, as described by Klingler et al. Final protein concentrations were 0.5 nM (NDM-1), 4.0 nM (VIM-1), and 0.1 nM (IMP-7) in a 50 mM HEPES buffer (pH 7.5, 0.01% Triton X-100) Substrate (Fluorocillin™ (Invitrogen, Darmstadt, Germany) was dissolved in assay buffer to a final concentration of 888 nM. Test compounds were dissolved and pre-diluted in DMSO (final concentration: 1%). In a black polystyrol 96-well plate (Corning) an amount of […] of the respective inhibitor solution at different concentrations was incubated with […] of respective protein containing buffer for 30 minutes at room temperature. […] of substrate solution was added. The readout of the emitted fluorescence was started immediately (45 s for 30 cycles) using a Tecan Infinite F200Pro (Tecan Group Ltd; excitation at 495 nm and emission at 525 nm). Blank controls were performed without enzyme. Positive controls were performed with enzyme but without inhibitor. The inhibitory activity of each test compound was measured in three independent experiments. For calculation of IC50 values, data obtained from measurements with eight different inhibitor concentrations were used. For the evaluation of the sigmoidal dose response equation (variable slope with four parameters) GraphPad Prism 5 (GraphPad Software, La Jolla, Calif., USA) was used.

IMP-7 = IMP-7 (Pseudomonas aeruginosa, UniProt Q93AU3); assay: In vitro inhibition assay (kinetic fluorescence-based activity assay), IMP-7; assay type: biochemical; conditions: Means and SD of at least two independent experiments
Protocol: as §1, §2

VIM-1 = target: T2, VIM-1 (Pseudomonas aeruginosa, UniProt A0A0F7KYQ8); assay: In vitro inhibition assay (kinetic fluorescence-based activity assay), VIM-1; assay type: biochemical; conditions: Means and SD of at least two independent experiments
T2 construct: made in house
Protocol: as §1, §2

[1] = tested on: different isolates from E. coli and P. aeruginosa; assay: MIC assay, intrinsic antibacterial activity; assay type: cell-based; conditions: compound alone
E. coli NDM-1 (T2359) = assay: Checkerboard assay with imipenem, E. coli NDM-1 (T2359); assay type: cell-based; conditions: for Imipenem MIC: Table 6
Protocol: (§3) Fractional inhibitory concentration index (FICI). The checkerboard assay was performed to test for synergy in vitro. […] FICIs≤0.5 were defined as synergistic; FICIs from >0.5 to […] were defined as additive; FICIs from 1 to ≤4 were defined as indifferent and FICIs>4 were defined as antagonistic (Doern, C. D. When Does 2 plus 2 Equal 5? A Review of Antimicrobial Synergy Testing. J. Clin. Microbial. 2014, 52 (12), 4124-4128. https://doi.org/10.1128/JCM.01121-14).

E. coli VIM-1 (T2544) = assay: Checkerboard assay with imipenem, E. coli VIM-1 (T2544); assay type: cell-based
Protocol: as §3

E. coli IMP-1 (T2360) = assay: Checkerboard assay with imipenem, E. coli IMP-1 (T2360); assay type: cell-based
Protocol: as §3

[2] = tested on: K. pneumoniae NDM-1 (T2301); assay: MIC assay, clinical isolate; assay type: cell-based
E. cloacae NDM-1 (T2311) = assay: MIC assay, clinical isolate; assay type: cell-based
[3] = tested on: S. marcescens NDM-1 (T2352); assay: MIC assay, clinical isolate; assay type: cell-based
E. coli NDM-5 (T2351) = assay: MIC assay, clinical isolate; assay type: cell-based
E. cloacae VIM-1 (T2353) = assay: MIC assay, clinical isolate; assay type: cell-based
[4] = tested on: P. aeruginosa IMP-1 (T2325); assay: MIC assay, clinical isolate; assay type: cell-based
E. cloacae GIM-1 (T2218) = assay: MIC assay, clinical isolate; assay type: cell-based
E. coli NDM-7 (T2239) = assay: MIC assay, clinical isolate; assay type: cell-based
[5] = tested on: P. aeruginosa VIM-1 (T2357); assay: MIC assay, clinical isolate; assay type: cell-based; conditions: intrinsic antimicrobial activity
[6] = tested on: A. baumannii OXA-23 (T2434); assay: MIC assay, clinical isolate; assay type: cell-based; conditions: intrinsic antimicrobial activity
E. coli KPC-2 (T2435) = assay: MIC assay, clinical isolate; assay type: cell-based; conditions: intrinsic antimicrobial activity
E. coli producing NDM-1 = assay: MIC of imipenem in the presence of HIPS1686; assay type: cell-based; conditions: Escherichia coli
[7] = intrinsic antimicrobial activity
[8] = Escherichia coli, read-out: Imipenem MIC

T1 sequence (C7C422 29-270, looked up, species assumed): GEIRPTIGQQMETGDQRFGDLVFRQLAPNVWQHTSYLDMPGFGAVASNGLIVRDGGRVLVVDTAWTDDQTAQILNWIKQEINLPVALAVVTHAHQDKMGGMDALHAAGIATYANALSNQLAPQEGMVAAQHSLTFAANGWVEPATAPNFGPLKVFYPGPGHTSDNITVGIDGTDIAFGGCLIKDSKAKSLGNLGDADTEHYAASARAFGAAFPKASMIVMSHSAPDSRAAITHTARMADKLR
Chain of IMP-7 (Q93AU3 entry or part of it): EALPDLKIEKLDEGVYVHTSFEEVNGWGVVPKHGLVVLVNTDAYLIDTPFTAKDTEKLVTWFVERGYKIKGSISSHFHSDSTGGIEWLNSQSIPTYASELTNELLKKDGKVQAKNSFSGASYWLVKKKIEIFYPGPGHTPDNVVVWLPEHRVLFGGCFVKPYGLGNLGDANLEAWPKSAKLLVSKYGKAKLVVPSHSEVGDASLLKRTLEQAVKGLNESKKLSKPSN

## O=C(CCS)Nc1cccc(C(=O)O)c1 [HIPS5694, 3-(3-mercaptopropanamido)benzoic acid]
NDM-1
  IC50: 4 µM
IMP-7
  IC50: 6.4 ± 0.6 µM
VIM-1
  IC50: 1.2 µM
[1]
  intrinsic antibacterial activity (MIC): no intrinsic antibacterial activity
E. coli NDM-1 (T2359); +2 mg/L compound
  Imipenem MIC: 128 µg/mL
E. coli NDM-1 (T2359); +4 mg/L compound
  Imipenem MIC: 128 µg/mL
E. coli NDM-1 (T2359); +8 mg/L compound
  Imipenem MIC: 64 µg/mL
E. coli NDM-1 (T2359); +16 mg/L compound
  Imipenem MIC: 64 µg/mL
E. coli NDM-1 (T2359); +32 mg/L compound
  Imipenem MIC: 8 µg/mL
E. coli NDM-1 (T2359); +64 mg/L compound
  Imipenem MIC: 2 µg/mL
E. coli NDM-1 (T2359); +128 mg/L compound
  Imipenem MIC: ≤0.5 µg/mL
E. coli VIM-1 (T2544); +2 mg/L compound
  Imipenem MIC: 32 µg/mL
E. coli VIM-1 (T2544); +4 mg/L compound
  Imipenem MIC: 32 µg/mL
E. coli VIM-1 (T2544); +8 mg/L compound
  Imipenem MIC: 32 µg/mL
E. coli VIM-1 (T2544); +16 mg/L compound
  Imipenem MIC: 16 µg/mL
E. coli VIM-1 (T2544); +32 mg/L compound
  Imipenem MIC: 16 µg/mL
E. coli VIM-1 (T2544); +64 mg/L compound
  Imipenem MIC: 8 µg/mL
E. coli VIM-1 (T2544); +128 mg/L compound
  Imipenem MIC: 0.5 µg/mL
E. coli IMP-1 (T2360); +2 mg/L compound
  Imipenem MIC: 2 µg/mL
E. coli IMP-1 (T2360); +4 mg/L compound
  Imipenem MIC: 2 µg/mL
E. coli IMP-1 (T2360); +8 mg/L compound
  Imipenem MIC: 1 µg/mL
E. coli IMP-1 (T2360); +16 mg/L compound
  Imipenem MIC: 1 µg/mL
E. coli IMP-1 (T2360); +32 mg/L compound
  Imipenem MIC: 1 µg/mL
E. coli IMP-1 (T2360); +64 mg/L compound
  Imipenem MIC: 0.5 µg/mL
E. coli IMP-1 (T2360); +128 mg/L compound
  Imipenem MIC: 0.5 µg/mL
[2]; +HIPS 5694 128 mg/L
  MIC (mg/L) Imipenem (+HIPS 5694 128 mg/L): 0.5 mg/L (≈ 2.22 µM)
[2]; [7]
  HIPS 5694 MIG: >256 mg/L
E. cloacae NDM-1 (T2311); +HIPS 5694 128 mg/L
  MIC (mg/L) Imipenem (+HIPS 5694 128 mg/L): 1 mg/L (≈ 4.44 µM)
E. cloacae NDM-1 (T2311); [7]
  HIPS 5694 MIG: >256 mg/L
[3]; +HIPS 5694 128 mg/L, S. marcescens NDM-1 (T2352)
  MIC (mg/L) Imipenem (+HIPS 5694 128 mg/L): 4 mg/L (≈ 17.8 µM)
[3]; intrinsic antimicrobial activity, S. marcescens NDM-1 (T2352)
  HIPS 5694 MIG: >256 mg/L
E. coli NDM-5 (T2351); +HIPS 5694 128 mg/L
  MIC (mg/L) Imipenem (+HIPS 5694 128 mg/L): 2 mg/L (≈ 8.88 µM)
E. coli NDM-5 (T2351); [7]
  HIPS 5694 MIG: >256 mg/L
E. cloacae VIM-1 (T2353); +HIPS 5694 128 mg/L
  MIC (mg/L) Imipenem (+HIPS 5694 128 mg/L): 2 mg/L (≈ 8.88 µM)
E. cloacae VIM-1 (T2353); [7]
  HIPS 5694 MIG: >256 mg/L
[4]; intrinsic antimicrobial activity, P. aeruginosa IMP-1 (T2325)
  HIPS 5694 MIG: >256 mg/L
E. cloacae GIM-1 (T2218); intrinsic antimicrobial activity, E. cloacae GIM-1 (T2218)
  HIPS 5694 MIG: >256 mg/L
E. coli NDM-7 (T2239); +HIPS 5694 128 mg/L, E. coli NDM-7 (T2239)
  MIC (mg/L) Imipenem (+HIPS 5694 128 mg/L): 2 mg/L (≈ 8.88 µM)
E. coli NDM-7 (T2239); intrinsic antimicrobial activity, E. coli NDM-7 (T2239)
  HIPS 5694 MIG: >256 mg/L
[5]
  HIPS 5694 MIG: >256 mg/L
[6]
  HIPS 5694 MIG: >256 mg/L
E. coli KPC-2 (T2435)
  HIPS 5694 MIG: >256 mg/L

## C[C@@H](O)[C@H]1C(=O)N2C(C(=O)O)=C(SCCN=CN)C[C@H]12 [Imipenem, reference compound]
E. coli producing NDM-1
  MIC: 128 µg/mL
E. coli NDM-1 (T2359); [8]
  MIC: 128 µg/mL
E. coli NDM-1 (T2359); without compound
  Imipenem MIC: 128 µg/mL
E. coli VIM-1 (T2544); Escherichia coli, read-out: Imipenem MIC, without compound
  MIC: 32 µg/mL
E. coli VIM-1 (T2544); without compound
  Imipenem MIC: 64 µg/mL
E. coli IMP-1 (T2360); [8]
  MIC: 2 µg/mL
[3]; Serratia marcescens, read-out: MIC (mg/L) Imipenem
  MIC: 256 mg/L (≈ 855 µM)
[4]; Pseudomonas aeruginosa, read-out: MIC (mg/L) Imipenem
  MIC: 64 mg/L (≈ 214 µM)
E. cloacae GIM-1 (T2218); Enterobacter cloacae, read-out: MIC (mg/L) Imipenem
  MIC: 2 mg/L (≈ 6.68 µM)
E. coli NDM-7 (T2239); Escherichia coli, read-out: MIC (mg/L) Imipenem
  MIC: 32 mg/L (≈ 107 µM)
